Like-named read-outs stand apart in the source and are kept apart here.
Columns and labels:
Type in all cases: in vivo
[1] = system: corn planthopper (Peregrinus maidis (Ashmead)); test: Test C: corn planthopper control on corn plants, insect mortality after 6 days; conditions: Peregrinus maidis, read-out: % Mortality (obs)
Method in brief: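 3-4-day-old potted corn plants sprayed at 250, 50 and/or 10 ppm (contact/systemic), dried 1 h, then infested with ~15-20 nymphs 18-21 days old. Mortality scored after 6 days at 19-21 °C, 50-70% RH; mixture effects judged against Colby-expected mortality.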

[2] = system: cotton melon aphid (Aphis gossypii Glover); test: Test D: cotton melon aphid control on okra plants, insect mortality after 6 days; conditions: Aphis gossypii, read-out: % Mortality (obs)
Method in brief: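 Okra plants (6–7 days old) pre-infested with 30–40 aphids by cut-leaf transfer were sprayed, three replicates, then held 6 days at 19-21° C and 50-70% RH before mortality scoring. Mixture enhancement was judged against Colby-expected % mortality.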

[3] = system: diamondback moth (Plutella xylostella L.); test: Test E: diamondback moth control through ingestion only, sprayed cabbage leaf tissue (Dipel), mortality after 4 days; conditions: Table 6c, read-out: % Mortality (obs)
Method: The pest control protection afforded by the mixtures or compositions is not limited, however, to these species. The analysis of enhanced activity between the mixtures or compositions was determined using Colby's equation. The average % mortality data for the test compounds alone were inserted into the Colby's equation. If the observed (obs) average % mortality was higher than “p”, the expected (exp) % mortality, the mixture or composition had enhanced effects. If the observed average % mortality was equal to or lower than the expected mortality, the mixture or composition either had no enhanced effect. For bioassays where insect feeding damage was evaluated, enhanced activity is identified when the observed plant damage is less than the expected plant damage rating; ratings ranged between 0 (no damage) and 10 (dead plant) and each value was converted to a % plant protection. 100−(Obs Plant Damage*10)
For evaluating control of diamondback moth (Plutella xylostella L.) through ingestion only, the test substance Dipel® (active ingredient Bacillus thuringiensis kurstaki) was formulated by diluting in water and then adding an MSO based adjuvant at 0.1% v/v. Cabbage plants were sprayed with Dipel® to runoff and allowed to dry for three hours. Once dry, plants leaf tissue was excised and one piece was placed into one well in an eight well tray. Test units were maintained in a growth chamber at 24-25° C. and 70% relative humidity.

[4] = system: silverleaf whitefly (Bemisia argentifolii Bellows and Perring); test: Test A: silverleaf whitefly control on cotton or soybean plants, spray, insect mortality after 13 days; conditions: Bemisia argentifolii, applied alone, read-out: % Mortality (obs)
Method in brief: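 Cotton (12–14-day) or soybean (5–7-day) plants carrying whitefly eggs were sprayed with compound in 10% acetone/water with non-ionic surfactant. Plants were held 13 days at 28°C and 50–70% RH; mortality was averaged over three replicates. Mixture enhancement was judged against Colby-expected values.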

Q: What does the source list for `O=C(NC1(C(F)F)CC1)c1cccc2nn(-c3cccnc3)cc12` [Cpd 5, N-[1-(difluoromethyl)cyclopropyl]-2-(3-pyridinyl)-2H-indazole-4-carboxamide]?
A: mortality at 50 ppm ([1]; 96 h, Table 4d): 5.3%; mortality at 250 ppm ([1]; 96 h, Table 4d): 75%; mortality at 50 ppm ([1]; Table 4e): 21.6%; mortality at 250 ppm ([1]; Table 4e): 13.1%; mortality at 50 ppm ([1]; Table 4f): 15.3%; mortality at 250 ppm ([1]; Table 4f): 22.4%; mortality at 50 ppm ([1]; Table 4g): 15.3%; mortality at 250 ppm ([1]; Table 4g): 22.4%; mortality at 0.12 ppm ([2]; 5 h, Table 5h): 40%; mortality at 0.18 ppm ([2]; 5 h, Table 5h): 68.4%; mortality at 0.12 ppm ([2]; 120 h, Table 5d): 34%; mortality at 0.18 ppm ([2]; 120 h, Table 5d): 62.7%; mortality at 0.12 ppm ([2]; Table 5a): 34%; mortality at 0.18 ppm ([2]; Table 5a): 62.7%; mortality at 0.12 ppm ([2]; Table 5b): 34%; mortality at 0.18 ppm ([2]; Table 5b): 62.7%; mortality at 0.12 ppm ([2]; Table 5c): 73.3%; mortality at 0.18 ppm ([2]; Table 5c): 6.7%; mortality at 0.12 ppm ([2]; Table 5e): 32.2%; mortality at 0.18 ppm ([2]; Table 5e): 61.6%; mortality at 0.12 ppm ([2]; Table 5f): 44.9%; mortality at 0.18 ppm ([2]; Table 5f): 58.9%; mortality at 0.12 ppm ([2]; Table 5g): 25.8%; mortality at 0.18 ppm ([2]; Table 5g): 44.3%; mortality at 0.12 ppm ([2]; Table 5i): 41.6%; mortality at 0.18 ppm ([2]; Table 5i): 70.3%; mortality at 0.12 ppm ([2]; Table 5j): 41.6%; mortality at 0.18 ppm ([2]; Table 5j): 70.3%; mortality at 0.12 ppm ([2]; Table 5k): 35.9%; mortality at 0.18 ppm ([2]; Table 5k): 67.2%; mortality at 0.12 ppm ([2]; Table 5l): 35.9%; mortality at 0.18 ppm ([2]; Table 5l): 67.2%; mortality at 0.12 ppm ([2]; Table 5m): 37.3%; mortality at 0.18 ppm ([2]; Table 5m): 61.7%; mortality at 0.12 ppm ([2]; Table 5n): 48.9%; mortality at 0.18 ppm ([2]; Table 5n): 77.7%; mortality at 50 ppm ([3]; 50 ppm): 21%; mortality at 250 ppm ([3]; 250 ppm): 25%; mortality at 50 ppm ([4]; 2 h, Table 2h): 0%; mortality at 250 ppm ([4]; 2 h, Table 2h): 6.9%; mortality at 50 ppm ([4]; 48 h, Table 2d): 8.9%; mortality at 250 ppm ([4]; 48 h, Table 2d): 11.7%; mortality at 50 ppm ([4]; Table 2a): 17%; mortality at 250 ppm ([4]; Table 2a): 13.5%; mortality at 50 ppm ([4]; Table 2b): 49%; mortality at 250 ppm ([4]; Table 2b): 19.2%; mortality at 50 ppm ([4]; Table 2c): 56.5%; mortality at 250 ppm ([4]; Table 2c): 41.1%; mortality at 50 ppm ([4]; Table 2e): 56.3%; mortality at 250 ppm ([4]; Table 2e): 11.2%; mortality at 50 ppm ([4]; Table 2f): 84.4%; mortality at 250 ppm ([4]; Table 2f): 55.1%; mortality at 50 ppm ([4]; Table 2g): 30%; mortality at 250 ppm ([4]; Table 2g): 73.4%; mortality at 50 ppm ([4]; Table 2i): 0%; mortality at 250 ppm ([4]; Table 2i): 0%

— patent US12419307B2, “Mixtures comprising indazole pesticides” (FMC Corporation, priority 2019, dated 2025)
